Data published in patent US20070191350A1, “Combinations comprising alpha-2-delta ligands” (Pifizer Inc., priority 2004, published 2007).

Test: Plasma concentration (Cmax) of gabapentin in the rat

Q: For `NCC1(CC(=O)O)CCCCC1` [gabapentin, 1-(aminomethyl)-cyclohexylacetic acid], which Cmax is on record?
A: 520 to 10500 ng/mL
